In brackets after ≈: the same amount, converted by molar mass. Where two headings read alike, the source gives them in different places.
Experiments:
[1] = test system: HCMV recombinant mutant virus; test: microbe, parasite or virus in culture; format: cell-based, human cytomegalovirus; details: Human betaherpesvirus 5, read-out: IC50 (ug/ml) HCMV
Excerpt: Microtiter plate assay. Ninety-six well plate cultures of human foreskin fibroblasts are infected in the presence of inhibitor compound with a HCMV recombinant mutant virus whose genome contains the prokaryotic beta-glucuronidase gene (Jefferson, R. A., S. M. Burgess, and D. Hirsh. 1986. Beta-glucuronidase from Escherichia coli as a gene fusion marker. Proc. Natl. Acad. Sci. USA 83:8447-8451) whose expression is controlled by a viral promoter. An example of such a virus is RV145 (Jones, T. R., V. P. Muzithras, and Y. Gluzman. 1991. Replacement mutagenesis of the human cytomegalovirus genome: US10 and US11 gene products are nonessential. J. Virol. 65:5860-5872). Since it is under the control of a viral promoter, beta-glucuronidase expression is an indirect indicator of growth and replication of HCMV in this assay. At 96 hours post-infection, the infected cell lysates are prepared (using 50mM sodium phosphate [pH7.0] containing 0.1 % Triton X-100 and 0.1% sarkosyl) and assayed for beta-glucuronidase activity using a substrate for the enzyme which when cleaved yields either a product which can be measured colorimetrically in a spectrophotometer or fluorescently in a microfluorimeter. Examples of such substrates are p-nitrophenyl-beta-D-glucuronide and methylumbelliferylglucuronide, respectively. The presence of an antiviral compound is indicated by the reduced expression of the HCMV genome resident beta-glucuronidase gene, compared to the absence of inhibitor. […] Data from this assay generated using varying amounts of inhibitor compound is also used to estimate the IC50 of an inhibitor compound.

VZV strain Ellen = test: VZV antiviral (ELISA) assay in human foreskin fibroblast cells; format: cell-based, varicella-zoster virus; details: for IC50: read-out: IC50 (ug/ml) VZV; for inhibition at 10 µg/mL: Human alphaherpesvirus 3, Fibroblast, read-out: % inhibition 10 ug/ml VZV
Method: VZV antiviral (ELISA) assay
For the generation of stock VZV to be used in the assay, VZV strain Ellen (ATCC #VR-1367) is used to infect human foreskin fibroblast (HFF) cells at low multiplicity (less than 0.1) and incubated overnight at 37°C in 5% CO2. After the overnight incubation, the mixture of uninfected and VZV-infected HFF infected cells are then harvested and added to each well of 96-well plates (3.5x10^4 cells in 100 µl DMEM supplemented with 2% FBS) which contain test compound or the reference standard drug control (in 100µl DMEM supplemented with 2% FBS per well). These cells are incubated for three days at 37°C in 5% CO2, then fixed for ELISA assay. The primary antibody is murine anti-VZV glycoprotein II monoclonal antibody (Applied Biosystems, Inc. #13-145-100) and the secondary antibody is goat anti-mouse IgG linked to β-galactosidase. Thus the extent of viral replication is determined by assessing β-galactosidase activity by quantifying the generation of the 4-methyl umbelliferone fluorescent cleavage product after addition of the methyl umbelliferyl-β-D-galactoside (Sigma #M1633) substrate on a microfluorimeter (365nm for excitation and 450nm for emission). Antiviral activity (IC50) of the test compound is determined by comparing the flourescence obtained in absence of compound to that obtained in the presence of compound.

HSV-1 = test: HSV antiviral (ELISA) assay in Vero cells; format: cell-based, herpes simplex virus type 1; details: read-out: IC50 (ug/ml) HSV
Method: HSV antiviral (ELISA) assay
Vero cells (ATCC #CCL-81) are plated on 96-well tissue culture plates at 3.5x10^4 cells per 100µl tissue culture DMEM (Dulbecco's modified Eagle media) supplemented with 2% fetal bovine serum (FBS) in each well. After overnight incubation @ 37°C (in 5% CO2) and 30 minutes prior to infection with HSV-1 (multiplicity of infection equal to 0.006), cells are either untreated, or treated with test compound (multiple concentrations) or reference standard drug control. After approximately 24 hours post-infection incubation @ 37°C (in 5% CO2), cells are fixed for ELISA assay. The primary antibody is murine anti-HSV glycoprotein D monoclonal primary antibody and the secondary antibody is goat anti-mouse IgG linked to β-galactosidase. Thus the extent of viral replication is determined by assessing β-galactosidase activity by quantifying the generation of the 4-methyl umbelliferone fluorescent cleavage product after addition of the methyl umbelliferyl-β-D-galactoside (Sigma #M1633) substrate on a microfluorimeter (365nm for excitation and 450nm for emission). Antiviral activity (IC50) of the test compound is determined by comparing the flourescence obtained in absence of compound to that obtained in the presence of compound.

[2] = Human alphaherpesvirus 3, VZV strain Ellen in HFF cells
[3] = Human alphaherpesvirus 1, HSV-1 in Vero cells

Structure (SMILES) | IC50 [1] | IC50 (VZV strain Ellen; [2]) | IC50 (HSV-1; [3]) | inhibition at 10 µg/mL (VZV strain Ellen) | IC50 (VZV strain Ellen; Human alphaherpesvirus 3, HFF) | IC50 (HSV-1; Human alphaherpesvirus 1, Vero)
CC(NC(=S)Nc1ccc(NC(=O)c2ccccc2F)c(C(F)(F)F)c1)c1ccc(Br)cc1 (centres unmarked) [Example 1035, N-(4-{3-[1-(4-Bromo-phenyl)-ethyl)-thioureido}-2-trifluoromethyl-phenyl)-2-fluoro-benzamide] | 2.3 µg/mL (≈ 4.26 µM) | 0.032 µg/mL (≈ 0.0592 µM) | 3.1 µg/mL (≈ 5.74 µM) | – | – | –
Cc1cc(NC(=O)c2cc(F)c(F)cc2F)ccc1NC(=S)NC(C)c1ccc(F)cc1 (centres unmarked) [Example 1029, 2,4,5-Trifluoro-N-(4-{3-[1-(4-fluoro-phenyl)-ethyl]-thioureido}-3-methyl-phenyl)-benzamide] | > 10 µg/mL | 0.53 µg/mL (≈ 1.15 µM) | > 10 µg/mL | – | – | –
CC(=O)Nc1ccc(NC(=S)Nc2ccc(NC(=O)c3ccccc3)c(Cl)c2)cc1 [Example 400, N-{4-[3-(4-Acetylamino-phenyl)-thioureido]-2-chloro-phenyl}-benzamide] | > 10 µg/mL | > 10 µg/mL | > 10 µg/mL | 15% | – | –
COc1cc(OC)c(NC(=S)Nc2ccc(NC(=O)c3ccccc3F)cc2C#N)cc1Cl [Example 381, N-{4-[3-(5-Chloro-2,4-dimethoxy-phenyl)-thioureido]-3-cyano-phenyl}-2-fluoro-benzamide] | > 10 µg/mL | > 10 µg/mL | > 10 µg/mL | 13% | – | –
O=C(Nc1ccc(NC(=S)NNc2cccc(Cl)c2)cc1)c1ccccc1F [Example 529, N-[4-({[2-(3-Chloro-phenyl)-hydrazino]-thioxomethyl}-amino)-phenyl]-2-fluoro-benzamide] | 8.5 µg/mL (≈ 20.5 µM) | 9 µg/mL (≈ 21.7 µM) | 1 µg/mL (≈ 2.41 µM) | 23% | – | –
CC(NC(=S)Nc1ccc(NC(=O)c2ccccc2F)c(-c2ccccc2)c1)c1ccc(F)cc1 (centres unmarked) [Example 1065, 2-Fluoro-N-(5-{3-[1-(4-fluoro-phenyl)-ethyl)-thioureido}-biphenyl-2-yl)-benzamide] | 8.1 µg/mL (≈ 16.6 µM) | – | – | – | 0.33 µg/mL (≈ 0.677 µM) | 4.9 µg/mL (≈ 10 µM)
CC(NC(=S)Nc1ccc(NC(=O)c2ccccc2F)c(Cl)c1)c1ccc(F)cc1 (centres unmarked) [Example 1038, N-(2-Chloro-4-{3-[1-(4-fluoro-phenyl)-ethyl]-thioureido}-phenyl)-2-fluoro-benzamide] | 3.5 µg/mL (≈ 7.85 µM) | 0.04 µg/mL (≈ 0.0897 µM) | 3 µg/mL (≈ 6.73 µM) | – | – | –
COc1cc(NC(=S)NC(C)c2ccc(C#N)cc2)c(OC)cc1NC(=O)c1ccccc1F (centres unmarked) [Example 1024, N-(4-{3-[1-(4-Cyano-phenyl)-ethyl]-thioureido}-2,5-dimethoxy-phenyl)-2-fluoro-benzamide] | > 10 µg/mL | > 10 µg/mL | > 10 µg/mL | – | – | –
CCOc1cc(NC(=S)NC(C)c2ccc(C#N)cc2)ccc1NC(=O)c1ccccc1F (centres unmarked) [Example 1061, N-(4-{3-[1-(4-Cyano-phenyl)-ethyl]-thioureido}-2-ethoxy-phenyl)-2-fluoro-benzamide] | 7.6 µg/mL (≈ 16.4 µM) | 0.64 µg/mL (≈ 1.38 µM) | > 10 µg/mL | – | – | –
CC(=O)Nc1ccc(NC(=S)Nc2ccc(NC(=O)c3ccc4ccccc4c3O)c(Cl)c2)cc1 [Example 204, 1-Hydroxy-naphthalene-2-carboxylic acid {4-[3-(4-acetylamino-phenyl)-thioureido]-2-chloro-phenyl}-amide] | 8 µg/mL (≈ 15.8 µM) | > 10 µg/mL | 4 µg/mL (≈ 7.92 µM) | 41% | – | –
COc1cc(NC(=O)c2ccccc2F)ccc1NC(=S)Nc1ccc(SC)c(Cl)c1 [Example 420, N-{4-[3-(3-Chloro-4-methylsulfanyl-phenyl)-thioureido]-3-methoxy-phenyl}-2-fluoro-benzamide] | 7 µg/mL (≈ 14.7 µM) | > 10 µg/mL | 0.2 µg/mL (≈ 0.42 µM) | 34% | – | –

Source: patent publication EP1137632B1, “THIOUREA INHIBITORS OF HERPES VIRUSES” (Wyeth, priority 1998, dated 2000)
